According to patent publication US12416008B2, “Compositions and methods of use for small-molecule regulation of CRISPR-Cas9 activity using RNA aptamers” (priority 2019, dated 2025):
Marks after values point to notes of the source that are not given here.

Key:
[1] = system: galK (site 1) and xylA (site 2); assay: multiplexed gene editing with theophylline-regulated GU19-agRNA and 3MX-regulated A9-agRNA on one plasmid; type: cell-based, E. coli; conditions: 3-hour induction with 1 mM of a single ligand
Description: A plasmid was designed that expressed a theophylline-regulated GU19-agRNA targeting galK1 and a 3-methylxanthine (3MX)-regulated A9-agRNA targeting the xylA gene. […] The plasmid construct was then used for a 3-hour induction with either 1 mM theophylline, 1 mM 3MX or a combination of the two and the transformed bacteria were plated on MacConkey agar that contained either galactose, xylose or both to assay editing of the galK and xylA genes with the red/white screen (FIG. 3D, FIG. 11).
For the purpose of first adding theophylline and later 3MX to independently induce two different agRNAs, the protocol was slightly modified. First, the bacteria were prepared and transformed as in the original protocol, 1 mM theophylline was added to the media and the culture was shaken at 30° C. for three hours. Then, the culture was heat-shocked again at 42° C. for 15 minutes to induce expression of the lambda-red proteins again and 1 mM 3MX was added to the media. The culture was shaken at 37° C. for three hours and then plated.

galK 1 site [2] = assay: red/white colony screen of editing efficiency at the galK 1 site (CREATE recombineering); type: cell-based, E. coli MG1655; conditions: galK1 site; agRNAs A9 and GU19 (FIG. 2A)
[3] = biological target: isolated aptamer (theophylline aptamer); conditions: theophylline binding; cited from earlier work
galK 1 site [4] = assay: red/white colony screen of editing efficiency at the galK 1 site (CREATE recombineering); type: cell-based, E. coli MG1655; conditions: for Editing Efficiency 1 mM Theo: induced for 3 hours with 1 mM theophylline; for Editing Efficiency no Theo: no theophylline, 3 hours recovery
Description: Candidates from this enriched library were analyzed to inform an improved library design. After three selection/counterselection steps, cells were plated on M63 selection medium^20 and 150 colonies were picked. Each isolated candidate was then transformed into unedited E. coli to screen for theophylline-responsive constructs using a red/white colony assay to quantify the percentage of edited bacteria. Colonies with an unedited galK site appear red whereas edited colonies appear white (FIG. 5). The percentage of white colonies is considered the editing efficiency. Gene editing was induced as previously described with or without adding theophylline and the editing efficiencies were compared.
The protocol established by Garst et al was mainly followed. LB containing kanamycin and chloramphenicol was inoculated with MGλ9 cells and grown overnight at 30° C. The stationary culture was diluted 100 fold in LB, containing chloramphenicol, kanamycin and 0.2% arabinose and grown to an OD600=0.4-0.6 in 25 mL LB. The culture was heat-shocked in a shaking waterbath at 42° C. for 15 minutes to induce expression of the lambda-red proteins from pSIM5. Then, the culture was washed in two volumes of ice-cold deionized water, resuspended in 500 μl deionized water and 50 μl of the cell suspension was electroporated with 200 ng of a CREATE plasmid that encodes gRNA and homology template. The transformants were recovered in 4 mL of LB, containing 0.2% arabinose and optionally 1 mM theophylline or 1 μM anhydrotetracycline (ATC), and shaken at 37° C. for 3 hours before plating on MacConkey Agar. To estimate the number of cfu, aliquots were plated on LB agar 1 hour after transformation.
(§1) In order to assess the frequency of gene editing, a red/white screen was used to visualize the introduction of a stop codon into the galK gene by CREATE. The original CREATE protocol was used for inducing gene editing and after 3 hours of recovery (with or without the agRNA ligand) a series of dilutions of the cultures were plated on MacConkey Agar plates containing 1% galactose. Bacterial colonies with a mutated galK* site appear white on the plates, whereas non-edited colonies appear red. The editing efficiency could be calculated by dividing the number of edited colonies over the total number of colonies. By comparing the editing efficiency in presence versus absence of the ligand, a dynamic range of the in vivo activity could be determined.
When screening the enriched libraries for switchable constructs, the transformants were recovered in 4 mL of LB broth, a dilution series was plated for every construct and the experiment was only carried out once due to the large volume of colonies screened (˜250 in total). When the constructs A9 and GU19 were characterized in detail, triplica of the experiment were carried out.

xylA gene = assay: red/white screen of editing at the xylA gene; type: cell-based, E. coli; conditions: 1 mM theophylline
Description: (§2) Promising agRNA constructs were analyzed in further detail. […] The xylA gene was targeted with these 17 agRNAs to test whether a different spacer sequence affects the performance. Editing was quantified with the same red/white screen. […] To confirm sequence independence of those two agRNAs, they were used to edit three more alternative sites at the galK gene. […] Sequencing confirmed that the phenotypic change in the assay corresponded to a designed genomic edit (FIG. 7). The observation that a number of agRNAs only act at the selected galK1 site highlights that the CRISPR-Cas9 system can be selected to act at a single sequence, a feature that could be exploited for reducing off-target effects.
as §1, with “Bacterial colonies with a mutated galK* site appear white on the plates, whereas non-edited colonies appear red.” left out

[5] = system: alternative sites at the galK gene; assay: editing at three more alternative sites at the galK gene; type: cell-based, E. coli; conditions: with or without 1 mM theophylline
Description: as §2
as §1, with “Bacterial colonies with a mutated galK* site appear white on the plates, whereas non-edited colonies appear red.” left out

[6] = biological target: T1, Streptococcus pyogenes Cas9 (Streptococcus pyogenes serotype M1, UniProt Q99ZW2); assay: electrophoretic mobility shift assay (EMSA) of Cas9 binding to gRNAs; conditions: presence or absence of 250 μM theophylline
T1 construct: host or cells: E. coli BL21 (DE3) Rosetta

MGλ9 strain = assay: transformation and editing efficiency, agRNAs activated with theophylline 1 hour after transformation (aptamer-protocol); type: cell-based, E. coli; conditions: theophylline added 1 hour after transformation; for increase in number of transformants: versus wt gRNA
Description: FIGS. 3A-3D show aptamer-gRNAs enable high-throughput genome editing. FIG. 3A is a schematic showing the workflow of the aptamer-controlled gene editing. […] CFUs are colony forming units μg-1 DNA and per 4 mL of recovery media. […] Each dot represents a biological replicate and error bars indicate standard deviation from the mean. FIG. 3C is a schematic of the plasmid design used to enable multiplexed gene editing. The individual homology arms and agRNAs are identical to the ones previously described for the single-edit experiments. […] The values represent the average of three biological replicates.
Equipped with temporally controllable agRNAs, the gene editing technology CREATE^10 was optimized. One major drawback of CRISPR-mediated bacterial gene editing technologies is cell death caused by dsDNA cuts^10, despite overexpression of λ-red proteins to increase the frequency of homologous repair. Without wishing to be bound by theory, it is hypothesized that the stress of transformation combined with rapid generation of dsDNA breaks synergistically leads to a high level of cell death. […] Although a low transformation efficiency is not a significant issue when creating a single edit with a defined sgRNA, it dramatically impacts the ability to transform a library of sgRNA plasmids to generate a population of bacteria with different edits. In this process, a portion of gRNAs from the library is expected to be non-functional due to errors in oligonucleotide synthesis, sgRNA misfolding, or inefficient targeting.
LB containing kanamycin and chloramphenicol was inoculated with MGλ9 cells and grown overnight at 30° C. The stationary culture was diluted 100 fold in LB, containing chloramphenicol and kanamycin and grown to an OD600=0.4-0.6 in 25 mL LB. Then, the culture was washed in two volumes of ice-cold deionized water, resuspended in 500 μl deionized water and 50 μl of the cell suspension was electroporated with 200 ng of a CREATE plasmid that encodes gRNA and homology template. The transformants were recovered in 4 mL of LB, containing 0.2% arabinose and shaken at 30° C. for 1 hour. The culture was heat-shocked in a shaking waterbath at 42° C. for 15 minutes and 1 mM theophylline or 1 μM ATC was added to the culture. The culture was shaken at 37° C. for 3 hours before plating on MacConkey Agar. To estimate the number of cfu, aliquots were plated on LB agar 1 hour after transformation.

galK1 site = assay: co-transformation of targeting gRNA plasmid with non-targeting gRNA plasmid (simulated library); conditions: for # of unedited colonies carrying non-targeting gRNA plasmid: 16 unedited colonies picked, 20 ng non-targeting + 180 ng targeting plasmid, 1 mM theophylline; for percentage of edited cells: plasmid mixture 90% targeting galK1, 10% non-targeting (eGFP) gRNA

T1 sequence (Q99ZW2 whole entry): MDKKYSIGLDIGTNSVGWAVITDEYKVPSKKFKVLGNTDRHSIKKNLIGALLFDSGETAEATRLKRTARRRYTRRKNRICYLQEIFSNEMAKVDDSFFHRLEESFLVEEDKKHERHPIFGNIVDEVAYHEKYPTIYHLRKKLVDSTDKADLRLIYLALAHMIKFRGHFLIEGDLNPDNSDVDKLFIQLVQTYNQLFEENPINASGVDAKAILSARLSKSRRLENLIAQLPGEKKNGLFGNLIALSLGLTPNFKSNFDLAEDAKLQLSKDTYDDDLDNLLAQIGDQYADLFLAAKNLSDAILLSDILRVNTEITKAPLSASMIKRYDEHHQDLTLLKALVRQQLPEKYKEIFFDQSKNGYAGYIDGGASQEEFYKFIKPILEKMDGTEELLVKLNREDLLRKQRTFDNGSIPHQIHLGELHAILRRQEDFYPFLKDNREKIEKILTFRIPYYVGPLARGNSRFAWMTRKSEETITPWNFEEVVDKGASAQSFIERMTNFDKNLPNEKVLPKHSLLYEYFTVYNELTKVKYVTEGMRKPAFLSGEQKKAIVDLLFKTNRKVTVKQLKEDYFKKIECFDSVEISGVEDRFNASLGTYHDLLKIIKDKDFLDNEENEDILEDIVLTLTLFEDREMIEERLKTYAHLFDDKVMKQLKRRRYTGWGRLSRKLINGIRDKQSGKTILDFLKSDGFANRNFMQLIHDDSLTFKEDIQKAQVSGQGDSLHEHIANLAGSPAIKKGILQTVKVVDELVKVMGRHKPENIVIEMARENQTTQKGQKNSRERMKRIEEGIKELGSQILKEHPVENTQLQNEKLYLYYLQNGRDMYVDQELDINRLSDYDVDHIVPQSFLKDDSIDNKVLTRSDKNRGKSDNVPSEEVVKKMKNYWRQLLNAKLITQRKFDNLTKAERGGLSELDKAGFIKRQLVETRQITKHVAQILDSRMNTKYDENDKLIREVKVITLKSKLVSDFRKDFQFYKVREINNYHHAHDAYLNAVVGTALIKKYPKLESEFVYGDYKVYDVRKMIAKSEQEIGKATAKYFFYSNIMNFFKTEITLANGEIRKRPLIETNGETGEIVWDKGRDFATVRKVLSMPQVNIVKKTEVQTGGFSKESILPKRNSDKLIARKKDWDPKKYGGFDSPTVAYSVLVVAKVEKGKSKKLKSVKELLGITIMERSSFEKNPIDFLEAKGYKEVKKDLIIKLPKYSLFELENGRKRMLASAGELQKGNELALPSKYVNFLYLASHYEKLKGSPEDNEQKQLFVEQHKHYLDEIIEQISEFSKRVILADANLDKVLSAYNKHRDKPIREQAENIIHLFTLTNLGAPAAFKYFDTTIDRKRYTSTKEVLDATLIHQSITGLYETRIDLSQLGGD

Compound	editing of galK and xylA upon induction (in words) [1]	dependence of editing efficiency on theophylline concentration and induction time (galK 1 site [2])	Kd [3] [nM]	Editing Efficiency 1 mM Theo (galK 1 site [4]) [%**]	Editing Efficiency no Theo (galK 1 site [4]) [%**]	editing efficiency at xylA compared with galK1 (in words) (xylA gene)	targetability of alternative galK sites (in words) [5]	apparent binding affinity to the Cas9 protein [6]	editing efficiencies (MGλ9 strain) [%]	increase in number of transformants (MGλ9 strain)	# of unedited colonies carrying non-targeting gRNA plasmid (galK1 site)	percentage of edited cells (galK1 site) [%]
Cn1c(=O)[nH]c(=O)c2nc[nH]c21 [3MX, 3-methylxanthine]	induced mostly editing of xylA and to a lesser extent galK											
Cn1c(=O)c2[nH]cnc2n(C)c1=O [theophylline]	induced editing of the galK gene but not the xylA gene	increased with the concentration of theophylline and induction time	400									
A9: agRNA cassette TGAAGGCCGCAACA, SEQ ID NO: 5 (chemistry not given here)				81	9	editing efficiency at xylA similar to the galK1 site used during selection	Only one of those sites was not targetable	the same apparent binding affinity to the Cas9 protein as the wild type gRNA, independent of theophylline	~80	10^4 fold	9/16	81
GU19: agRNA cassette GATCGGCCATAGAT, SEQ ID NO: 51 (chemistry not given here)				64	3	editing efficiency at xylA similar to the galK1 site used during selection	more site-dependent, but also showed less background activity	the same apparent binding affinity to the Cas9 protein as the wild type gRNA, independent of theophylline	~80	10^4 fold	6/16	63
